For 26 compounds, IC50 results are on record in patent publication US8987275B2, “Indazole compounds and their uses” (Dana-Farber Cancer Institute, Inc., priority 2010, dated 2015).

Molecules are shown by their SMILES.

Common to all, as to type: cell-based
The target in one assay is T1, BCR-Abl T315I (Homo sapiens, UniProt P00519, T315I).
T1 construct: BCR (N-terminal fusion partner of BCR-ABL); human BCR would be P11274; expressed in transfected cells; host or cells: Ba/F3 (or 32D) murine hematopoietic cells transfected with BCR-ABL T315I in pCI-neo; the other entry of the earlier key: BCR (P11274, Breakpoint cluster region protein)
Kind of assay: IC50 of compounds against kinase target T315I (Table I). As to conditions: read-out: IC50 T3151. The method, then: (§1) All compounds are initially dissolved in DMSO to make 10 mM stock solutions, and then are serially diluted to obtain final concentrations for in vitro experiments.
(§2) Ba/F3.p210 cells are obtained by transfecting the IL-3-dependent marine hematopoietic Ba/F3 cell line with a pGD vector containing p210BCR-ABL (B2A2) cDNA (Daley and Baltimore, 1988; Sattler et al., 1996; Okuda et al., 1996). Murine hematopoietic 32D cells are transduced with retrovirus to express p210 Bcr-ABL (32D.p210 cells) (Matulonis et al., 1993); the 32D-T315I cell line is transfected by electroporation with the imatinib resistant BCR-ABL construct (pCI-neo Mammalian Expression Vector; Promega (#E1841) harboring the point mutation T315I (Weisberg et al., 2005). Ba/F3 cells are stably transfected by electroporation with imatinib-resistant BCR-ABL constructs (pCI-neo Mammalian Expression Vector; Promega (#E1841) harboring the point mutations T315I, F317L, F486S, and M351T; transfectants are selected for neomycin resistance and IL-3-independent growth (Weisberg et al., 2005). Ba/F3 cells are stably transfected by electroporation with BCR-ABL point mutants identified in a random mutagenesis screen for BCR-ABL point mutants conferring resistance to nilotinib: Q252H, E292K, Y253C, Y253H, E255K, and V289L (Ray et al., 2007). Ba/F3 cells are made to express Tel-PDGFRβ as described by Golub et al., 1994, and Carroll et al., 1996. Constructs of D842V-PDGFRα and V561D-PDGFRα cDNA cloned into pcDNA3.1 are stably transfected into Ba/F3 cells by electroporation, and cells are selected for neomycin resistance and IL3-independent growth as described by Weisberg et al., 2006.
(§3) All cell lines are cultured with 5% CO2 at 37° C. in RPMI (Mediatech, Inc., Herndon, Va.) with 10% fetal calf serum (FCS) and supplemented with 1% L-glutamine. Parental Ba/F3 cells are similarly cultured with 15% WEHI-conditioned medium as a source of IL-3. Transfected cell lines are cultured in media supplemented with 1 mg/ml G418.

The target of a further assay is T2, Bcr-Abl (Homo sapiens, UniProt P00519).
T2 construct: BCR (N-terminal fusion partner, p210 form, B2A2 junction); expressed in transfected cells; host or cells: Ba/F3.p210 (or 32D.p210) murine hematopoietic cells; the other entry of the earlier key: BCR (P11274, Breakpoint cluster region protein)
Kind of assay: IC50 of compounds against kinase target Bcr-Abl (Table I). The method, then: as §1, §2, §3

For a further assay, the target named is T3, EML4-Alk (Homo sapiens, UniProt Q9UM73).
T3 construct: EML4 (N-terminal fusion partner); human EML4 would be Q9HC35; the other entry of the earlier key: EML4 (Q9HC35, Echinoderm microtubule-associated protein-like 4)
The assay is described as follows: IC50 of compounds against kinase target EML4-Alk (Table I). Here is the method:
as §1, §3

The target in the next assay is T4, Tel-Alk (Homo sapiens, UniProt Q9UM73).
T4 construct: TEL (ETV6); N-terminal fusion partner; human ETV6 would be P41212; the other entry of the earlier key: ETV6 (P41212, Transcription factor ETV6)
The assay is described as follows: IC50 of compounds against kinase target Tel-Alk (Table I). Here is the method:
as §1, §3

T4 sequence (Q9UM73 1116-1392 limits assumed): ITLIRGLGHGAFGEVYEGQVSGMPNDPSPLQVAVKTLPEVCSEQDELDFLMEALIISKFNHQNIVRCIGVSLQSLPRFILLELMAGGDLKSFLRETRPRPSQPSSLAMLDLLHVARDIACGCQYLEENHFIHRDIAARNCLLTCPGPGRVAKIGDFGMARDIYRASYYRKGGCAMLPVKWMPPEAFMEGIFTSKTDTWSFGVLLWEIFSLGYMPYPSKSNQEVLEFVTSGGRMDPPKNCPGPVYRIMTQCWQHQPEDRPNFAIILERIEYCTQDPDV
T3 sequence (Q9UM73 1058-1620 limits assumed): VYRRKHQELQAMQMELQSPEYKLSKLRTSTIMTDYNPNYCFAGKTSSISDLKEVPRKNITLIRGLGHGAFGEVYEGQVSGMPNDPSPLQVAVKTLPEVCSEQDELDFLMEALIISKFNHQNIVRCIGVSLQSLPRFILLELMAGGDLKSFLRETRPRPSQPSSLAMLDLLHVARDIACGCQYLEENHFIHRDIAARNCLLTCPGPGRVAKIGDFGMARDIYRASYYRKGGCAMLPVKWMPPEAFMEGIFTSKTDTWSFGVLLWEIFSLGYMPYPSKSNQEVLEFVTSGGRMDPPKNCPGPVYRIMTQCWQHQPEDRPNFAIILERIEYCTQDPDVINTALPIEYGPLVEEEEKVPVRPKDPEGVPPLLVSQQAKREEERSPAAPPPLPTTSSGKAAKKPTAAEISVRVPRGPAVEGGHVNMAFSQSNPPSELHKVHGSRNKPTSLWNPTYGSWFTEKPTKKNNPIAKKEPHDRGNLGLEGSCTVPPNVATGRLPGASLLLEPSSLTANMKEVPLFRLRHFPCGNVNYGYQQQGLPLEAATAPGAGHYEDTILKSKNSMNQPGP

In general, IC50 refers to the concentration that inhibits the measured activity by half. Turning to `CCN1CCN(Cc2ccc(NC(=O)c3ccc(C)c(-c4ccc5c(NC(=O)C6CC6)n[nH]c5c4)c3)cc2C(F)(F)F)CC1` [Compound 13], the IC50 was 500 nM at BCR-Abl T315I, 30 nM on Bcr-Abl, 1060 nM against EML4-Alk and 310 nM at Tel-Alk.
`CCN1CCN(Cc2ccc(C(=O)Nc3cccc(-c4ccc5c(N)n[nH]c5c4)c3)cc2C(F)(F)F)CC1` [Compound 20]: the IC50 at BCR-Abl T315I was determined as 310 nM; against Bcr-Abl it was 90 nM; against EML4-Alk, 400 nM; on Tel-Alk, 270 nM.
As for `CCN1CCN(Cc2ccc(NC(=O)c3ccc(C)c(-c4ccc5c(NC(=O)C6CC6)n[nH]c5c4)c3)cc2)CC1` [Compound 14], the IC50 on BCR-Abl T315I is more than 10000 nM; against Bcr-Abl, 1050 nM; against EML4-Alk, 5600 nM; against Tel-Alk it was 1440 nM.
`CCN1CCN(Cc2ccc(NC(=O)c3cccc(-c4ccc5c(NC(=O)C6CC6)n[nH]c5c4)c3)cc2)CC1` [Compound 9]: the IC50 at BCR-Abl T315I, against Bcr-Abl, on EML4-Alk and against Tel-Alk was more than 10000 nM in each case.
As to `CCOC(=O)c1cccc(-c2ccc3c(NC(=O)c4ccc(N5CCN(C)CC5)cc4)n[nH]c3c2)c1` [Compound 27], the concentration for half-maximal inhibition (IC50) at BCR-Abl T315I is 1560 nM; against Bcr-Abl, 70 nM; against EML4-Alk it was 4220 nM; against Tel-Alk, 5260 nM.
Consider `Cc1cn(-c2cc(NC(=O)c3cccc(-c4ccc5c(NC(=O)C6CC6)n[nH]c5c4)c3)cc(C(F)(F)F)c2)cn1` [Compound 6], for which the IC50 at BCR-Abl T315I came out at 310 nM; against Bcr-Abl it was 3070 nM; at EML4-Alk, 1340 nM; on Tel-Alk, 2900 nM.
For the compound `O=C(Nc1cccc(-c2ccc3c(NC(=O)C4CC4)n[nH]c3c2)c1)C1CC1` [Compound 22], the half-inhibitory concentration (IC50) is 1270 nM at BCR-Abl T315I, 360 nM against Bcr-Abl, 500 nM against EML4-Alk and 430 nM on Tel-Alk.
For `O=C(Nc1n[nH]c2cc(-c3cccc(C(=O)N4CCC(N5CCCC5)CC4)c3)ccc12)C1CC1` [Compound 8] the same measures were more than 10000 nM, more than 10000 nM, more than 10000 nM and more than 10000 nM.
With `Cc1ccc(C(=O)Nc2cccc(C(F)(F)F)c2)cc1Nc1ccc2c(NC(=O)C3CC3)n[nH]c2c1` [Compound 25, 3-(3-(cyclopropanecarboxamido)-1H-indazol-6-ylamino)-4-methyl-N-(3-(trifluoro-methyl)phenyl)benzamide], the IC50 on BCR-Abl T315I is more than 10000 nM; on Bcr-Abl it was 7180 nM; against EML4-Alk, more than 10000 nM; on Tel-Alk, 7180 nM.
Consider `O=C(NC1CC1)c1cccc(-c2ccc3c(NC(=O)C4CC4)n[nH]c3c2)c1` [Compound 10], for which the 50% inhibitory concentration (IC50) at BCR-Abl T315I, against Bcr-Abl, at EML4-Alk and against Tel-Alk was more than 10000 nM in each case.
Regarding `CCN1CCN(Cc2ccc(C(=O)Nc3cccc(-c4ccc5c(NC(=O)C6CC6)n[nH]c5c4)c3)cc2C(F)(F)F)CC1` [Compound 23], the concentration for half-maximal inhibition (IC50) at BCR-Abl T315I, against Bcr-Abl, at EML4-Alk and against Tel-Alk was more than 10000 nM each time.
For the compound `CCN1CCN(Cc2ccc(NC(=O)c3cccc(-c4ccc5c(NC(=O)C6CC6)n[nH]c5c4)c3)cc2C(F)(F)F)CC1` [Compound 19], the IC50 on BCR-Abl T315I is 340 nM; against Bcr-Abl, 650 nM; at EML4-Alk, 60 nM; on Tel-Alk it was 30 nM.
The matching figures for `CCN1CCN(Cc2ccc(NC(=O)c3cccc(Nc4ccc5c(NC(=O)C6CC6)n[nH]c5c4)c3)cc2C(F)(F)F)CC1` [Compound 24]: 3110 nM, 2380 nM, 2530 nM and 3750 nM.
The matching figures for `CCN1CCN(Cc2ccc(NC(=O)c3cccc(-c4ccc5c(N)n[nH]c5c4)c3)cc2C(F)(F)F)CC1` [Compound 17]: 7120 nM, 780 nM, more than 10000 nM and more than 10000 nM.
Regarding `O=C(Nc1cccc(C(F)(F)F)c1)c1cccc(-c2ccc3c(NC(=O)C4CC4)n[nH]c3c2)c1` [Compound 1], the IC50 against Bcr-Abl, on EML4-Alk and against Tel-Alk was more than 10000 nM throughout.
As to `CCN1CCN(Cc2ccc(NC(=O)c3cccc(-c4ccc5c(NC)n[nH]c5c4)c3)cc2C(F)(F)F)CC1` [Compound 2, N-(4-((4-ethylpiperazin-1-yl)methyl)-3-(trifluoromethyl)phenyl)-3-(3-(methylamino)-1H-indazol-6-yl)benzamide], the concentration for half-maximal inhibition (IC50) turned out to be 630 nM on BCR-Abl T315I, 50 nM on Bcr-Abl, 4190 nM at EML4-Alk and 4480 nM against Tel-Alk.
In the case of `Cc1cn(-c2cc(NC(=O)c3ccc(C)c(-c4ccc5c(NC(=O)C6CC6)n[nH]c5c4)c3)cc(C(F)(F)F)c2)cn1` [Compound 16], the IC50 on BCR-Abl T315I is more than 10000 nM; against Bcr-Abl, 220 nM; at EML4-Alk it was more than 10000 nM; against Tel-Alk, more than 10000 nM.
Regarding `COc1cc(Nc2ccc3c(NC(=O)C4CC4)n[nH]c3c2)cc(C(=O)Nc2ccc(CN3CCN(C)CC3)c(C(F)(F)F)c2)c1` [Compound 26], the IC50 was 7080 nM on Bcr-Abl, more than 10000 nM against EML4-Alk and 7080 nM at Tel-Alk.
Consider `CCN1CCN(Cc2ccc(NC(=O)c3cccc(-c4ccc5c(NC(=O)c6ccccc6)n[nH]c5c4)c3)cc2C(F)(F)F)CC1` [Compound 3], for which the half-inhibitory concentration (IC50) at Bcr-Abl came out at 470 nM; at EML4-Alk, 1670 nM; against Tel-Alk, 1070 nM.
As to `CONC(=O)c1cccc(-c2ccc3c(NC(=O)C4CC4)n[nH]c3c2)c1` [Compound 11], the IC50 on BCR-Abl T315I, on Bcr-Abl, against EML4-Alk and at Tel-Alk was more than 10000 nM throughout.
For `Cc1ccc(C(=O)Nc2cccc(C(F)(F)F)c2)cc1-c1ccc2c(NC(=O)C3CC3)n[nH]c2c1` [Compound 15], the IC50 on BCR-Abl T315I is more than 10000 nM; against Bcr-Abl, 1190 nM; against EML4-Alk it was 8470 nM; on Tel-Alk it was 1290 nM.
Take `O=C(NCCN1CCOCC1)c1cccc(-c2ccc3c(NC(=O)C4CC4)n[nH]c3c2)c1` [Compound 7]: the concentration for half-maximal inhibition (IC50) on BCR-Abl T315I, at Bcr-Abl, against EML4-Alk and on Tel-Alk was more than 10000 nM in each case.
As to `CNC(=O)c1cccc(-c2ccc3c(NC(=O)C4CC4)n[nH]c3c2)c1` [Compound 12], the half-maximal inhibitory concentration (IC50) turned out to be 2080 nM on BCR-Abl T315I, 1900 nM against Bcr-Abl, 1050 nM against EML4-Alk and 720 nM against Tel-Alk.
Take `CCN1CCN(Cc2ccc(NC(=O)Nc3cccc(-c4ccc5c(NC(=O)C6CC6)n[nH]c5c4)c3)cc2C(F)(F)F)CC1` [Compound 21]: the half-maximal inhibitory concentration (IC50) amounted to 240 nM on BCR-Abl T315I, 530 nM at Bcr-Abl, 360 nM against EML4-Alk and 320 nM on Tel-Alk.
As for `CNc1n[nH]c2cc(-c3cccc(C(=O)Nc4cc(-n5cnc(C)c5)cc(C(F)(F)F)c4)c3)ccc12` [Compound 18], the IC50 is 3080 nM at BCR-Abl T315I, 1570 nM on Bcr-Abl, more than 10000 nM against EML4-Alk and more than 10000 nM against Tel-Alk.
As to `CN1CCN(c2ccc(C(=O)Nc3n[nH]c4cc(-c5cccc(C(=O)Nc6cccc(C(F)(F)F)c6)c5)ccc34)cc2)CC1` [Compound 28, 3-(3-(4-(4-methylpiperazin-1-yl)benzamido)-1H-indazol-6-yl)-N-(3-(trifluoromethyl)phenyl)benzamide], the concentration for half-maximal inhibition (IC50) on BCR-Abl T315I was more than 10000 nM; on Bcr-Abl it was 1440 nM; against EML4-Alk it was more than 10000 nM; against Tel-Alk, more than 10000 nM.
